According to patent US11045455B2, “Azetidine derivative, preparation method therefor, and use thereof” (SICHUAN KELUN-BIOTECH BIOPHARMACEUTICAL CO., LTD., priority 2016, dated 2021):
Read-outs that look alike come from different tables or passages of the source.

Legend:
[1] = Pharmacokinetic study in Rhesus monkeys, intravenous (IV) administration; format: in vivo; conditions: male, rhesus monkey, plasma, IV administration at 0.5 mg/kg
Method: (§1) To study the pharmacokinetic characteristics of test compounds, the test compounds were administrated by an intravenous (IV) route to male Rhesus monkeys. The dosage for IV administration was 0.5 mg/kg. Blood was collected at various time points after the IV administration. Plasma samples were analyzed by LC-MS/MS after protein precipitation process with acetonitrile. Pharmacokinetic parameters were calculated with a non-compartmental model by using WinNonlin 6.3 software.

[2] = target: TYK2 (Homo sapiens (Human), UniProt P29597); experiment: TYK2 enzymatic inhibition assay (LanthaScreen TR-FRET); format: biochemical
TYK2, sequence (P29597 whole entry): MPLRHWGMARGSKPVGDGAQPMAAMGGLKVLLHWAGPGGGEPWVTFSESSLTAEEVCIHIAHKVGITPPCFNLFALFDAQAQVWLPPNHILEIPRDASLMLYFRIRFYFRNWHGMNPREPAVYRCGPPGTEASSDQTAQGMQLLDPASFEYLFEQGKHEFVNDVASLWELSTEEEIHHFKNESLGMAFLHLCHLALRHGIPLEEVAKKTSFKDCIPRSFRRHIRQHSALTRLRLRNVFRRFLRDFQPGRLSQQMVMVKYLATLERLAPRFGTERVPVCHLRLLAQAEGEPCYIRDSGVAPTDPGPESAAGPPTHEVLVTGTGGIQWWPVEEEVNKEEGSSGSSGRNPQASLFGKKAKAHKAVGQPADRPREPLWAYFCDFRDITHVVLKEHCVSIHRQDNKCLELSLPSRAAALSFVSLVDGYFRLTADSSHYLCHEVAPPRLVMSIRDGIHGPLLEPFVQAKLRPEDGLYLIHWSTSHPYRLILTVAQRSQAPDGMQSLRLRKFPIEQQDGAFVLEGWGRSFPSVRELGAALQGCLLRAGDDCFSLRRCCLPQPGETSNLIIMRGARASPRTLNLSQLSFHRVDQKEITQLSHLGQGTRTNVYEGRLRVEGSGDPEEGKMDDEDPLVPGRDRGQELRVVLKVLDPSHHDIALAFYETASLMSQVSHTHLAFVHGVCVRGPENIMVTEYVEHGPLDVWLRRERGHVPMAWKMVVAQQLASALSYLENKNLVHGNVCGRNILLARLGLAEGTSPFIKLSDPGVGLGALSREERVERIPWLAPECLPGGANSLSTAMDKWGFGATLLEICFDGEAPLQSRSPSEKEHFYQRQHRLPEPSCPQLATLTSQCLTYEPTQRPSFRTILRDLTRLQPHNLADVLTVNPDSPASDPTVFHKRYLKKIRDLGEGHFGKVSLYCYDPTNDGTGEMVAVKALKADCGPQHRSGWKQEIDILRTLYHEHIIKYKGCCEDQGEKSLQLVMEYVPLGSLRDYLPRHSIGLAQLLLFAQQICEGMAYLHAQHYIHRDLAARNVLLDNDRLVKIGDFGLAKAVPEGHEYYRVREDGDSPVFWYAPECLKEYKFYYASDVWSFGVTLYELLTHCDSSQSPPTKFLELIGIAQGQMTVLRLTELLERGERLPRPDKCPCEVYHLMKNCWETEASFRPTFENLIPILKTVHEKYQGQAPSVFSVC
Method: (§2) Experimental Example 1: JAK1, JAK2, JAK3 and TYK2 Enzymatic Inhibition Assay
As for the TYK2 enzyme, Tb-anti-pSTAT1 was added, and incubation at room temperature was performed.

[3] = Pharmacokinetic study in Rhesus monkeys, gavage (PO) administration; format: in vivo; conditions: male, rhesus monkey, plasma, PO administration at 1 mg/kg; for AUC(0-t): 0-24 h; for half-life: read-out: T½ (converted)
Method: as §1, with “a gavage (PO)” for “an intravenous (IV)”, “PO” for “IV”, “1” for “0.5”

[4] = Pharmacokinetic study in rats, intravenous (IV) administration; format: in vivo; conditions: male, SD, rat, plasma, IV administration at 1 mg/kg; for AUC(0-t): 0-24 h; for half-life: read-out: T½ (converted)
Method: (§3) Experimental Example 3: Pharmacokinetic Studies
(§4) To study the pharmacokinetic characteristics of test compounds, the test compounds were administrated by intravenous (IV) and gavage (PO) routes to male SD rats. The dosage for IV administration was 1 mg/kg, and that for PO administration was 0.5-5 mg/kg. The vehicle is 10% DMSO: 10% solutol: 80% physiological saline, or 5% DMSO: 5% solutol: 90% physiological saline, or 10% DMSO: 60% PEG: 30% physiological saline. Blood was collected at various time points after administration. Plasma samples were analyzed by LC-MS/MS after protein precipitation process with acetonitrile.

[5] = target: hERG potassium channel (Homo sapiens (Human), UniProt Q12809); experiment: Predictor hERG Fluorescence Polarization Assay; format: binding; conditions: tested at 3, 10 and 30 μM
hERG potassium channel, sequence (Q12809 whole entry): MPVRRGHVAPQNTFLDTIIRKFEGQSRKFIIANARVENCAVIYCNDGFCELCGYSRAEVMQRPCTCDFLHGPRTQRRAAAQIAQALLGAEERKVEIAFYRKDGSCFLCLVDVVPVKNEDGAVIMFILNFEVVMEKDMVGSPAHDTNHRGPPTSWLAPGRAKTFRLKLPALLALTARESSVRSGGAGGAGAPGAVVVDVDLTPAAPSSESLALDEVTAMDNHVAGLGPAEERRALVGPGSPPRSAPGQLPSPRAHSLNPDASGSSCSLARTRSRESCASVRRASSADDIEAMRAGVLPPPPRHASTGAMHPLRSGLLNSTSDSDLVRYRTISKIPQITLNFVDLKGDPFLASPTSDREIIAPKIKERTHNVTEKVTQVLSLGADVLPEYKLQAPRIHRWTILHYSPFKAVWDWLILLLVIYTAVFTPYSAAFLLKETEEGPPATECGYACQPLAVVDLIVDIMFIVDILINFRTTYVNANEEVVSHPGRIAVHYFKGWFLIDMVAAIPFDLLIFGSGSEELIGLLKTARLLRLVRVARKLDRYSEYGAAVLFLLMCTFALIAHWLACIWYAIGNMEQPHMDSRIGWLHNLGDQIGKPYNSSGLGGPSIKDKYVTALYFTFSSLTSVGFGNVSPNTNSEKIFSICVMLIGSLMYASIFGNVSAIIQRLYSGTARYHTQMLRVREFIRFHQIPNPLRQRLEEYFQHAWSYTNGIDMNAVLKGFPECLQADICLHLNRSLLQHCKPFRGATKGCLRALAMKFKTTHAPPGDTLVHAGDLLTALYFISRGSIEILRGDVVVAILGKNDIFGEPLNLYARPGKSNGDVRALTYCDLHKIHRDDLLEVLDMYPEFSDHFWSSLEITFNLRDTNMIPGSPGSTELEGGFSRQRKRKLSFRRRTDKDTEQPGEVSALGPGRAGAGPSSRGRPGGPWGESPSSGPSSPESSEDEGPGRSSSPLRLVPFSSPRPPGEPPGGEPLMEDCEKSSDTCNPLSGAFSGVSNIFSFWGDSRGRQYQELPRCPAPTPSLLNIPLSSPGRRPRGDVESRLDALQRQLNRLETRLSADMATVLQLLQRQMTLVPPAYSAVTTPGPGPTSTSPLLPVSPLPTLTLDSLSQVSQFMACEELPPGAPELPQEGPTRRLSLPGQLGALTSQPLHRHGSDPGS
Method: Experimental Example 2: Safety Test
The effect of test compounds on hERG potassium channel were determined using Predictor™ hERG Fluorescence Polarization Assay at concentrations of 3, 10, and 30 μM.

[6] = target: JAK3 (Homo sapiens (Human), UniProt P52333); experiment: JAK3 enzymatic inhibition assay (ADP-Glo luminescence); format: biochemical
Text: as §2

[7] = tested on: Collagen-Induced Arthritis (CIA) Model in Rats; experiment: In vivo efficacy in collagen-induced arthritis (CIA) model in rats; parameters: species or system Lewis rats; Mean arthritis score: scale not given here
Method: Experimental Example 4: In Vivo Efficacy in Collagen-Induced Arthritis (CIA) Model in Rats
A mixed emulsion of bovine type II collagen and incomplete Freund's adjuvant 1:1 was injected at the back and the tail tip (3 sites) in Lewis rats. After 14 days, the paw thickness and paw volume of the rats were measured, and the arthritis development was scored. The day before the administration was set as DO, the animals were grouped based on paw volume, and the test compounds (vehicle: 5% DMSO+5% solutol) were gavage administered once a day for two weeks. The paw thickness and paw volume of the rats were measured, and the arthritis development was scored.

[8] = Pharmacokinetic study in rats, gavage (PO) administration; format: in vivo; conditions: male, SD, rat, plasma; for AUC(0-t): po, gavage administration at 5 mg/kg, 0-24 h
Method: as §3, §4

[9] = target: CYP2D6 (Homo sapiens (Human), UniProt P10635); experiment: CYP450 enzyme test, Vivid CYP2D6 Cyan screening kit; format: in vitro ADME
CYP2D6, sequence (P10635 whole entry): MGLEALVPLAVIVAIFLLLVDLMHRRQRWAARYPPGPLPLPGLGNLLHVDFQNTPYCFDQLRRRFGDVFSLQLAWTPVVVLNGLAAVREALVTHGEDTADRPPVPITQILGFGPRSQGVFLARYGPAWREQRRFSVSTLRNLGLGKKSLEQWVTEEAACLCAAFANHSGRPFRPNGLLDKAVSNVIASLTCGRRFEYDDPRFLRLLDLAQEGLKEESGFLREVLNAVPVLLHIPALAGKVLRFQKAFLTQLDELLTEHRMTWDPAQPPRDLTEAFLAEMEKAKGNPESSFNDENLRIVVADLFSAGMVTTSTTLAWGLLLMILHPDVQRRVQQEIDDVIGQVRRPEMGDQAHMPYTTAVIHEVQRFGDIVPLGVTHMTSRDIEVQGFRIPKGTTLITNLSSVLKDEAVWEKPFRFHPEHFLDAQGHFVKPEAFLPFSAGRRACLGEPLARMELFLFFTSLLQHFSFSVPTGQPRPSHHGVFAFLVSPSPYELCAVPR
Text: (§5) CYP450 is the most important enzymatic system in drug metabolism. The enzymes involved in the metabolism interact with a drug, and mainly include CYP1A2, CYP2D6 and CYP3A4. In the CYP450 enzyme test, P450-Glo™ CYP1A2 screening system was employed to determine the inhibitory activity of compounds on CYP1A2 and CYP3A4. The Vivid® CYP2D6 Cyan screening kit was employed to determine the inhibitory activity of test compounds on CYP2D6.

[10] = target: CYP1A2 (Homo sapiens (Human), UniProt P05177); experiment: CYP450 enzyme test, P450-Glo screening system, CYP1A2; format: in vitro ADME
CYP1A2, sequence (P05177 whole entry): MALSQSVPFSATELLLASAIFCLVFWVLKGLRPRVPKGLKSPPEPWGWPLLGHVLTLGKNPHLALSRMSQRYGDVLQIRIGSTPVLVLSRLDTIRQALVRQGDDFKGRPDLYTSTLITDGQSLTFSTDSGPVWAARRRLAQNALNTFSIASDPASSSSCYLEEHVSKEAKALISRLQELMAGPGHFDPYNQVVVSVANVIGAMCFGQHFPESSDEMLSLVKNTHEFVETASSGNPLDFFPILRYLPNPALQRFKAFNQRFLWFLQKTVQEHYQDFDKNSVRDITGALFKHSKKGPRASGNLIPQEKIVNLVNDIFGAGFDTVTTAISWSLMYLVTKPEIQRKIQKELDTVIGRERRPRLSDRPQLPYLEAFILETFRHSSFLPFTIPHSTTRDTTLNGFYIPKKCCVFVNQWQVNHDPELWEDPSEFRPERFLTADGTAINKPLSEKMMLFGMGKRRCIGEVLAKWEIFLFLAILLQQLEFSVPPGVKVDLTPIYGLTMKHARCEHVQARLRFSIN
Text: as §5

[11] = target: JAK2 (Homo sapiens (Human), UniProt O60674); experiment: JAK2 enzymatic inhibition assay (ADP-Glo luminescence); format: biochemical
Method: (§6) Test Materials • JAK1, JAK2, JAK3 and TYK2 enzymes were purchased from Life Technologies; and substrate GFP-STAT1 was purchased from Life Technologies.
(§7) Test compounds, enzymes, the substrate and ATP were diluted to the desired concentrations with the assay buffer (40 mM Tris-HCl, pH 7.4, 20 mM MgCl2, 0.1% BSA). The former three were added into a multiple well plate, and incubated at room temperature after being mixed homogeneously. ATP was added to initiate the kinase reaction, and incubation at room temperature was performed. ADP-Glo was added, and incubation at room temperature was performed. The kinase detector reagent was then added, and incubation at room temperature was performed. The luminescence intensity of each test group was detected, and the half maximal inhibitory concentration (IC50) value was calculated.

[12] = target: CYP3A4 (Homo sapiens (Human), UniProt P08684); experiment: CYP450 enzyme test, P450-Glo screening system, CYP3A4; format: in vitro ADME
CYP3A4, sequence (P08684 whole entry): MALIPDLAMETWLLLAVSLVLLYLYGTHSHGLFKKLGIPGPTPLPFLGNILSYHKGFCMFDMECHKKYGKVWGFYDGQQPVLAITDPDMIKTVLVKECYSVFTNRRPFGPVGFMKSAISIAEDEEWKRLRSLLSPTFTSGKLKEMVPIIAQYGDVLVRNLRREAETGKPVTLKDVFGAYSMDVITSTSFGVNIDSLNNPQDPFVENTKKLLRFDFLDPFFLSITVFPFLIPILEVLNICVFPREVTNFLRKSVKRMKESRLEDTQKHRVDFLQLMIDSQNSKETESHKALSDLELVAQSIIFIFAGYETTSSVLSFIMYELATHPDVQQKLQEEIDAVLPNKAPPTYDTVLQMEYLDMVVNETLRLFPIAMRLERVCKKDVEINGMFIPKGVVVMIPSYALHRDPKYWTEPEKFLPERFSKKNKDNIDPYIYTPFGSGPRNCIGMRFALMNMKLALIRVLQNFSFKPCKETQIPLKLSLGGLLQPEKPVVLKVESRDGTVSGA
Text: as §5

[13] = target: JAK1 (Homo sapiens (Human), UniProt P23458); experiment: JAK1 enzymatic inhibition assay (ADP-Glo luminescence); format: biochemical
JAK1, sequence (P23458 whole entry): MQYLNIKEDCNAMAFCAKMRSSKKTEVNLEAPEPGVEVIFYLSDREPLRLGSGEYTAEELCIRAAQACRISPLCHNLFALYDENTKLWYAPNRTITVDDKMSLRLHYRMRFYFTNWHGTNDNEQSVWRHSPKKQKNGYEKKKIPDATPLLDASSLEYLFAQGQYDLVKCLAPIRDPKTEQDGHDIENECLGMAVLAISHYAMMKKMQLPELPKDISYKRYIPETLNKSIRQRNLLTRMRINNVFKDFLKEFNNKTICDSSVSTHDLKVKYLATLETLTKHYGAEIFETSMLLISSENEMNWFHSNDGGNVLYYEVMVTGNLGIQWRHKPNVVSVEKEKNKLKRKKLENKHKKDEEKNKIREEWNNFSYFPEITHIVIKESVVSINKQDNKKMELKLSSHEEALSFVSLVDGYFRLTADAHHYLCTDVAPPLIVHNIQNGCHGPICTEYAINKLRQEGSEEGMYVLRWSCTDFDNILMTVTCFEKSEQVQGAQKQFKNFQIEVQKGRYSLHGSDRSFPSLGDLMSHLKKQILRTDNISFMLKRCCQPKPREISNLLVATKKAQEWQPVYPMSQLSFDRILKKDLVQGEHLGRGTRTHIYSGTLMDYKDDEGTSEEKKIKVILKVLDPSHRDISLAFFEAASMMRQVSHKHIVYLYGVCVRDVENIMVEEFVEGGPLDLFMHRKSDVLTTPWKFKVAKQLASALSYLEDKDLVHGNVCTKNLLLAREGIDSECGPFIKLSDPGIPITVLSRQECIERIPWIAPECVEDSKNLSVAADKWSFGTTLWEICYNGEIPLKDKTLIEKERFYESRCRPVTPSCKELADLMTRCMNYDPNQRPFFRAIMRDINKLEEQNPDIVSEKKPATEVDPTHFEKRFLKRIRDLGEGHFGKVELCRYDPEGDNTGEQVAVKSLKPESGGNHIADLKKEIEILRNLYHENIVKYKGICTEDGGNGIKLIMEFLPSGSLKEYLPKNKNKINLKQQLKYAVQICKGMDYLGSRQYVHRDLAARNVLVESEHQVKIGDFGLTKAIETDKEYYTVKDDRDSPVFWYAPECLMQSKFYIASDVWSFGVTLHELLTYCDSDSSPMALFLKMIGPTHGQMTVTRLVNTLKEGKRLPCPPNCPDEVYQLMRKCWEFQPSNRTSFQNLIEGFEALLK
Method: as §6, §7

[14] = D0 (day before administration), 10 mg/kg group
[15] = D11, 10 mg/kg gavage once a day
[16] = D15, 10 mg/kg gavage once a day

In the case of `CCS(=O)(=O)N1CC(CC#N)(n2cc(-c3ccnc4[nH]ccc34)cn2)C1` [Compound 8, 2-(3-(4-(1H-pyrrolo[2,3-b]pyridin-4-yl)-1H-pyrazol-1-yl)-1-(ethylsulfonyl)azetidin-3-yl)acetonitrile], the half-life [1] is reported as 5.29 h, the IC50 [2] is reported as 27.3 nM and the bioavailability [3] is reported as 78.6%. The AUC(0-t) [3] was 2600 ng·h/mL, the half-life [3] was 2.68 h and the AUC(0-t) [4] was 2650 ng·h/mL. The half-life [4] was 3.93 h, the IC50 [5] was over 30000 nM and the IC50 [6] was 47.9 nM. For the same compound, the Mean arthritis score [7, 14] was 2.63, the “Mean paw thickness (mm)” value [7, 14] was 7.18 mm and the “Mean paw volume” value [7, 14] was 1.71 mL. For the same compound, the Mean arthritis score ([7]; D4, 10 mg/kg gavage once a day) was 1.38, the “Mean paw thickness (mm)” value ([7]; D4, 10 mg/kg gavage once a day) was 6.04 mm and the “Mean paw volume” value ([7]; D4, 10 mg/kg gavage once a day) was 1.47 mL. For the same compound, the Mean arthritis score ([7]; D7, 10 mg/kg gavage once a day) was 1.00, the “Mean paw thickness (mm)” value ([7]; D7, 10 mg/kg gavage once a day) was 5.67 mm and the “Mean paw volume” value ([7]; D7, 10 mg/kg gavage once a day) was 1.41 mL. The Mean arthritis score [7, 15] was 1.00, the “Mean paw thickness (mm)” value [7, 15] was 5.56 mm and the “Mean paw volume” value [7, 15] was 1.42 mL. For the same compound, the Mean arthritis score [7, 16] was 1.13, the “Mean paw thickness (mm)” value [7, 16] was 5.52 mm and the “Mean paw volume” value [7, 16] was 1.48 mL. It also gave an AUC(0-t) [8] of 14100 ng·h/mL.
In the case of `CCS(=O)(=O)N1CC(CC#N)(n2cc(-c3ncnc4[nH]ccc34)cc2C#N)C1` [Compound 39, 1-(3-(cyanomethyl)-1-(ethylsulfonyl)azetidin-3-yl)-4-(7H-pyrrolo[2,3-d]pyrimidin-4-yl)-1H-pyrrole-2-carbonitrile], the IC50 [9] is reported as over 10 µM, the IC50 ([10]; human) is reported as over 10 µM and the half-life [4] is reported as 1.67 h. The IC50 [5] was over 30000 nM, the IC50 [6] was 10 to 30 nM and the IC50 [11] was 0.69 nM. The IC50 [12] was over 10 µM.
Compound `CS(=O)(=O)N1CC(CC#N)(n2cc(-c3ccnc4[nH]ccc34)cn2)C1` [Compound 19, 2-(3-(4-(1H-pyrrolo[2,3-b]pyridin-4-yl)-1H-pyrazol-1-yl)-1-(methylsulfonyl)azetidin-3-yl)acetonitrile] has an IC50 [13] of 0.69 nM, an IC50 [9] of over 10 µM and an IC50 ([10]; human) of over 10 µM. For the same compound, the AUC(0-t) [4] was 1390 ng·h/mL, the half-life [4] was 7.1 h and the IC50 [5] was over 30000 nM. For the same compound, the IC50 [6] was 10.3 nM, the IC50 [12] was over 10 µM and the AUC(0-t) [8] was 5030 ng·h/mL.
Compound `CCS(=O)(=O)N1CC(CC#N)(n2cc(-c3ncnc4[nH]ccc34)cn2)C1` [Baricitinib, reference compound] has a half-life [1] of 1.38 h, a bioavailability [3] of 26.3% and an AUC(0-t) [3] of 994 ng·h/mL. The half-life [3] was 1.96 h, the AUC(0-t) [4] was 505 ng·h/mL and the half-life [4] was 0.946 h. The Mean arthritis score [7, 14] was 3.00, the “Mean paw thickness (mm)” value [7, 14] was 7.17 mm and the “Mean paw volume” value [7, 14] was 1.71 mL. The Mean arthritis score ([7]; D4, 10 mg/kg gavage once a day) was 2.25, the “Mean paw thickness (mm)” value ([7]; D4, 10 mg/kg gavage once a day) was 6.67 mm and the “Mean paw volume” value ([7]; D4, 10 mg/kg gavage once a day) was 1.55 mL. The Mean arthritis score ([7]; D7, 10 mg/kg gavage once a day) was 1.38, the “Mean paw thickness (mm)” value ([7]; D7, 10 mg/kg gavage once a day) was 6.47 mm and the “Mean paw volume” value ([7]; D7, 10 mg/kg gavage once a day) was 1.47 mL. The Mean arthritis score [7, 15] was 1.75, the “Mean paw thickness (mm)” value [7, 15] was 6.36 mm and the “Mean paw volume” value [7, 15] was 1.48 mL. For the same compound, the Mean arthritis score [7, 16] was 1.88, the “Mean paw thickness (mm)” value [7, 16] was 6.21 mm and the “Mean paw volume” value [7, 16] was 1.59 mL. The bioavailability ([8]; PO administration at 0.5-5 mg/kg, read-out: bioavailability (F %)) was 55%, the half-life ([8]; PO administration at 0.5-5 mg/kg, read-out: half-life (T1/2) (converted)) was 1.58 h and the AUC(0-t) [8] was 3050 ng·h/mL.
Compound `CC(C)S(=O)(=O)N1CC(CC#N)(n2cc(-c3c(C#N)cnc4[nH]ccc34)cn2)C1` [Compound 43, 4-(1-(3-(cyanomethyl)-1-(isopropylsulfonyl)azetidin-3-yl)-1H-pyrazol-4-yl)-1H-pyrrolo[2,3-b]pyridine-5-carbonitrile] has an IC50 [13] of 0.55 nM, an IC50 [9] of over 10 µM and an IC50 [2] of over 30 nM. It also gave an IC50 ([10]; read-out: IC50 (μM) CYP1A2) of over 10 µM, an IC50 [5] of over 30000 nM and an IC50 [6] of 10 to 30 nM. The IC50 [11] was 2.54 nM and the IC50 [12] was over 10 µM.
`N#CCC1(n2cc(-c3ccnc4[nH]ccc34)cn2)CN(S(=O)(=O)CCC(F)(F)F)C1` [Compound 30, 2-(3-(4-(1H-pyrrolo[2,3-b]pyridin-4-yl)-1H-pyrazol-1-yl)-1-((3,3,3-trifluoropropyl)sulfonyl)azetidin-3-yl)acetonitrile] showed an IC50 [13] of 2.22 nM, an IC50 [2] of 58.2 nM and an AUC(0-t) [4] of 3170 ng·h/mL. For the same compound, the half-life [4] was 1.5 h, the IC50 [5] was over 30000 nM and the IC50 [6] was 36.5 nM. The IC50 [11] was 2.16 nM and the AUC(0-t) [8] was 32200 ng·h/mL.
With `CCS(=O)(=O)N1CC(CC#N)(n2cc(-c3c(C#N)cnc4[nH]ccc34)cn2)C1` [Compound 5, 4-(1-(3-(cyanomethyl)-1-(ethylsulfonyl)azetidin-3-yl)-1H-pyrazol-4-yl)-1H-pyrrolo[2,3-b]pyridine-5-carbonitrile] the IC50 [9] was over 10 µM, the IC50 [2] was 27 nM and the IC50 ([10]; human) was over 10 µM. For the same compound, the AUC(0-t) [4] was 834 ng·h/mL, the half-life [4] was 0.997 h and the IC50 [5] was over 30000 nM. It also gave an IC50 [6] of 33.8 nM, an IC50 [11] of 1.49 nM and an IC50 [12] of over 10 µM. For the same compound, the AUC(0-t) [8] was 3150 ng·h/mL.
`CC(C)CS(=O)(=O)N1CC(CC#N)(n2cc(-c3ccnc4[nH]ccc34)cn2)C1` [Compound 25, 2-(3-(4-(1H-pyrrolo[2,3-b]pyridin-4-yl)-1H-pyrazol-1-yl)-1-(isobutylsulfonyl)azetidin-3-yl)acetonitrile] showed an IC50 [13] of 2.29 nM, an IC50 [9] of over 10 µM and an IC50 [2] of over 30 nM. It also gave an IC50 ([10]; read-out: IC50 (μM) CYP1A2) of over 10 µM, an IC50 [5] of over 30000 nM and an IC50 [6] of over 30 nM. The IC50 [11] was 0.83 nM and the IC50 [12] was over 10 µM.
